From patent US20050209278A1, “Piperidinyl- and piperazinyl-sulfonylmethyl hydroxamic acids and their use as protease inhibitors” (priority 2002, published 2005)
Where a name gives a salt, the structure may show the parent alone.

The compounds below were run against T1, MMP-1 (Homo sapiens, UniProt P03956) (assay: In vitro MMP inhibition, Ki determination (fluorogenic substrate II)). Conditions: MMP-1 Ki, value not in parenthesis.
T1 construct: made in house; host or cells: MMP-1-transfected HT-1080 cells (spent media)
T1 sequence (P03956 100-469): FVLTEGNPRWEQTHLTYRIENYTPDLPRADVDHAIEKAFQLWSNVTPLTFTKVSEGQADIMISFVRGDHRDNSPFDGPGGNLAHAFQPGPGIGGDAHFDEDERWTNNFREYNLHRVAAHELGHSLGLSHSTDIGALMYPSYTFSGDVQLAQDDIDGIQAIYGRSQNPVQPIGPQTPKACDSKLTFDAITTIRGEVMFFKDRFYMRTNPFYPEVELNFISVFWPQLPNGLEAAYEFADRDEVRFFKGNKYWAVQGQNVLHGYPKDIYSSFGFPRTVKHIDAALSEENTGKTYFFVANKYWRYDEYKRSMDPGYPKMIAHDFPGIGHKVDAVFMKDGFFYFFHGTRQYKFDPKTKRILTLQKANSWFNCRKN
Format: biochemical
Method: Several hydroxamic acids and salts thereof were analyzed in in vitro assays to determine their ability to inhibit the MMP cleavage of peptide substrates. […] and IC50 constants were calculated from the assayed hydroxamic acid-MMP interactions.
Human recombinant MMP-1, MMP-2, MMP-9, MMP-13, and MMP-14 were used in this assay. All enzymes were prepared in Assignee's laboratories following usual laboratory procedures. Protocols for the preparation and use of these enzymes are available in the scientific literature. See, e.g., Enzyme Nomenclature (Academic Press, San Diego, Calif., 1992) (and the citations therein). See also, Freije et al., “Molecular cloning and expression of collagenase-3, a novel human matrix metalloproteinase produced by breast carcinomas,” J Biol. Chem., 269(24), 16766-16773 (1994).
The MMP-1 proenzyme was purified from the spent media of MMP-1-transfected HT-1080 cells provided by Dr. Harold Welgus of Washington University (St. Louis, Mo.). The protein was purified on a zinc chelating column.
All MMPs were activated using 4-aminophenylmercuric acetate (“APMA”, Sigma Chemical, St. Louis, Mo.) or trypsin. MMP-9 also was activated using human recombinant MMP-3 (purified in Assignee's laboratory following standard cloning and purification techniques).
Two fluorogenic, methoxycoumarin-containing polypeptide substrates were used in the MMP inhibition assays: [drawing 427] Here, “Dpa” is 3-(2,4-dinitrophenyl)-L-2,3-diaminopropionyl group, and “MCA” is 7-methoxycoumarin-4-yl acetyl. Substrate (I) was purchased from Baychem (Redwood City, Calif.), and substrate II was prepared Assignee's laboratory. Substrate I was used in the IC50 determination assays, while substrate II was used in the Ki determination assays. In the absence of MMP inhibitory activity, either substrate is cleaved at the Gly-Leu peptide bond. This cleavage separates the highly fluorogenic peptide from the 2,4-dinitrophenyl quencher, thus resulting in increase of fluorescent intensity.
The stock solutions of the assayed hydroxamic acids (or salts thereof) were prepared in 1% dimethyl sulfoxide (DMSO). These stock solutions were diluted in Buffer A (100 mM Tris-HCl, 100 mM NaCl, 10 mM CaCl2, 0.05% polyoxyethylene 23 lauryl ether, pH 7.5) to obtain solutions with different hydroxamic acid concentrations, i.e., assay solutions with different concentrations of the assayed MMP inhibitory compound. The experiment controls contained the same amount of Buffer A/DMSO as the assayed sample, but contained no hydroxamic acid (or salt thereof).
The assays from which the Ki determinations were made were performed as follows. The assayed hydroxamic acid samples were incubated in separate wells of untreated white polystyrene plates (Nunc Nalgene International, Rochester, N.Y.), and analyzed on a Tecan SpectraFlour Plus plate reader. The excitation wavelength was 330 nm, and the emission wavelength—420 nm. All samples (assayed hydroxamic acids and controls) were incubated in separate plate wells at room temperature for 1 hr in the presence of 4 μM of MMP substrate (II). In the absence of MMP inhibitory activity, substrate II was cleaved at the Gly-Leu bond resulting in an increase of relative fluorescence. Inhibition was observed as a reduced rate of this increase in relative fluorescence. The various hydroxamic acids were analyzed using a single low enzyme concentration with a single substrate concentration fixed at or below the Km. This protocol is a modification of method by Knight et al., FEBS Lett., 296(3), 263-266 (1992). Apparent inhibitory constants were determined by non-linear regression of reaction velocity as a function of inhibitor and enzyme concentration using Morrison's equation, as described by Kuzmic, Anal. Biochem. 286, 45-50 (2000). […] Since the substrate concentration was chosen to be at or below the Km, the apparent Ki's from this analysis were reported as Ki's without correction for the influence of substrate.

Compound | Ki
O=C(NO)C1(S(=O)(=O)N2CCN(c3ccc(COCC(F)(F)C(F)(F)C(F)(F)F)cc3)CC2)CCOCC1 [Example 69] | > 10 µM

Same assay, conditions: human recombinant enzyme; 4 μM substrate II; room temperature, 1 hr; read-out: MMP-1 Ki

Compound | Ki
COCCN1CCC(C(=O)NO)(S(=O)(=O)N2CCC(c3ccc(OCCCC(F)(F)F)cc3)CC2)CC1 [Example 20, N-hydroxy-1-(2-methoxyethyl)-4-({4-[4-(4,4,4-trifluorobutoxy)phenyl]piperidin-1-yl}sulfonyl)piperidine-4-carboxamide Hydrochloride] | > 10 µM
O=C(NO)C1(S(=O)(=O)N2CCN(c3ccc(-c4ccccc4)c(F)c3)CC2)CCOCC1 [Example 12, 4-{[4-(2-fluoro-1,1′-biphenyl-4-yl)piperazin-1-yl]sulfonyl}-N-hydroxytetrahydro-2H-pyran-4-carboxamide Hydrochloride] | > 10 µM
CCCCCc1ccc(N2CCN(S(=O)(=O)C3(C(=O)NO)CCOCC3)CC2)c(F)c1 [Example 23, 4-{[4-(2-fluoro-4-pentylphenyl)piperazin-1-yl]sulfonyl}-N-hydroxytetrahydro-2H-pyran-4-carboxamide Hydrochloride] | > 10 µM
O=C(NO)C1(S(=O)(=O)N2CCC(c3ccc(OCC(F)(F)F)cc3)CC2)CCN(C2CC2)CC1 [Example 25, 1-cyclopropyl-N-hydroxy-4-({4-[4-(2,2,2-trifluoroethoxy)phenyl]piperidin-1-yl}sulfonyl)piperidine-4-carboxamide Hydrochloride] | > 10 µM
O=C(NO)C1(S(=O)(=O)N2CCC(c3ccc(CCC(F)(F)C(F)(F)F)cc3)CC2)CCOCC1 [Example 18, N-hydroxy-4-({4-[4-(3,3,4,4,4-pentafluorobutyl)phenyl]piperidin-1-yl}sulfonyl)tetrahydro-2H-pyran-4-carboxamide] | 7.35 µM
COCCN1CCC(C(=O)NO)(S(=O)(=O)N2CCN(c3ccc(OCCCC(F)(F)F)cc3)CC2)CC1 [Example 9, N-hydroxy-1-(2-methoxyethyl)-4-({4-[4-(4,4,4-trifluorobutoxy)phenyl]piperazin-1-yl}sulfonyl)piperidine-4-carboxamide Dihydrochloride] | > 10 µM
CCCCOc1ccc(C2CCN(S(=O)(=O)C3(C(=O)NO)CCN(CCOC)CC3)CC2)cc1 [Example 16, 4-{[4-(4-butoxyphenyl)piperidin-1-yl]sulfonyl}-N-hydroxy-1-(2-methoxyethyl)piperidine-4-carboxamide Hydrochloride] | > 10 µM
CCCCc1ccc(C2CCN(S(=O)(=O)C3(C(=O)NO)CCOCC3)CC2)s1 [Example 19, 4-{[4-(5-butylthien-2-yl)piperidin-1-yl]sulfonyl}-N-hydroxytetrahydro-2H-pyran-4-carboxamide] | > 10 µM
CCCCc1ccc(C2CCN(S(=O)(=O)C3(C(=O)NO)CCN(C4CC4)CC3)CC2)nc1 [Example 24, 4-{[4-(5-butylpyridin-2-yl)piperidin-1-yl]sulfonyl}-1-cyclopropyl-N-hydroxypiperidine-4-carboxamide Hydrochloride] | > 10 µM
O=C(NO)C1(S(=O)(=O)N2CCC(c3cnc(OCC(F)(F)C(F)(F)F)cn3)CC2)CCOCC1 [Example 27] | 4.78 µM
O=C(NO)C1(S(=O)(=O)N2CCN(c3ccc(CCC(F)(F)C(F)(F)F)cc3)CC2)CCOCC1 [Example 17, N-hydroxy-4-({4-[4-(3,3,4,4,4-pentafluorobutyl)phenyl]piperazin-1-yl}sulfonyl)tetrahydro-2H-pyran-4-carboxamide Hydrochloride] | > 10 µM

The remaining lines, values ahead:

Ki | Compound
> 10 µM | CCCCCc1ccc(N2CCN(S(=O)(=O)C3(C(=O)NO)CCN(CC)CC3)CC2)cc1F [Example 22, 1-ethyl-4-{[4-(3-fluoro-4-pentylphenyl)piperazin-1-yl]sulfonyl}-N-hydroxypiperidine-4-carboxamine Hydrochloride]
7.53 µM | CCOc1ccc(N2CCN(S(=O)(=O)C3(C(=O)NO)CCOCC3)CC2)cc1 [Example 3, 4-{[4-(4-ethoxyphenyl)piperazinyl]sulfonyl}perhydro-2H-pyran-4-carbohydroxamic Acid]

Same assay, conditions: value not in parenthesis; read-out: MMP-1 Ki

Compound | Ki
CCCCCc1cnc(N2CCN(S(=O)(=O)C3(C(=O)NO)CCOCC3)CC2)s1 [Example 56] | > 10 µM
O=C(NO)C1(S(=O)(=O)N2CCN(c3ccc(-c4ccc(Cl)cc4)cn3)CC2)CCOCC1 [Example 60] | 0.555 µM
O=C(NO)C1(S(=O)(=O)N2CCN(c3ccc(SC(F)(F)F)cc3)CC2)CCN(Cc2ccccc2)CC1 [Example 152] | > 10 µM
O=C(NO)C1(S(=O)(=O)N2CCN(c3ncccn3)CC2)CCOCC1 [Example 107] | 1.19 µM
CCCCOc1ccc(N2CCN(S(=O)(=O)C3(C(=O)NO)CCN4CCCC4C3)CC2)cc1F (stereo not drawn) [Example 126] | > 10 µM
O=C(NO)C1(S(=O)(=O)N2CCN(c3ncc(Br)cn3)CC2)CCOCC1 [Example 103] | 0.686 µM
O=C(NO)C1(S(=O)(=O)N2CCN(c3ncccn3)CC2)CCOCC1 [Example 106] | 1.47 µM

Further lines, results first:

Ki | Compound
> 10 µM | CCCCOc1ccc(N2CCN(S(=O)(=O)C3(C(=O)NO)CCN(C(=O)NCCOC)CC3)CC2)cc1 [Example 118]
> 10 µM | CCCCOc1ccc(N2CCN(S(=O)(=O)C3(C(=O)NO)CCN(c4ccc(O)cc4)CC3)CC2)cc1 [Example 121]
> 10 µM | CCCCOc1ccc(N2CCN(S(=O)(=O)C3(C(=O)NO)CCN(C(=O)OCC(F)(F)F)CC3)CC2)cc1 [Example 115]
> 10 µM | CCCCOc1ccc(N2CCN(S(=O)(=O)C3(C(=O)NO)CCN(c4ccccn4)CC3)CC2)cc1 [Example 149]
> 10 µM | C=CCCOC(=O)N1CCC(C(=O)NO)(S(=O)(=O)N2CCN(c3ccc(OCCCC)cc3)CC2)CC1 [Example 101]
> 10 µM | CCCCOc1ccc(N2CCN(S(=O)(=O)C3(C(=O)NO)CCOCC3)CC2)cc1 [Example 145]
> 10 µM | COCCN1CCC(C(=O)NO)(S(=O)(=O)N2CCN(c3ccc(OCCC(C)C)cc3)CC2)CC1 [Example 148]
> 10 µM | CCCCOc1ccc(N2CCN(S(=O)(=O)C3(C(=O)NO)CCN(c4cnccn4)CC3)CC2)cc1 [Example 140]
> 10 µM | CCCCCCCCCc1cnc(N2CCN(S(=O)(=O)C3(C(=O)NO)CCOCC3)CC2)nc1 [Example 110]
> 10 µM | CCCCOc1ccc(N2CCN(S(=O)(=O)C3(C(=O)NO)CCN(c4ccc(C)nc4)CC3)CC2)cc1 [Example 131]
> 10 µM | O=C(NO)C1(S(=O)(=O)N2CCN(c3ccc(OCCCC(F)(F)F)cc3)CC2)CCN(c2cnccn2)CC1 [Example 112]
> 10 µM | CCCCOc1ccc(N2CCN(S(=O)(=O)C3(C(=O)NO)CCN(c4cccnc4)CC3)CC2)cc1 [Example 154]
> 10 µM | CCCCOc1ccc(N2CCN(S(=O)(=O)C3(C(=O)NO)CCN(c4ncc(CC)cn4)CC3)CC2)cc1 [Example 155]
> 10 µM | O=C(c1cccnc1)N1CCC(C(=O)NO)(S(=O)(=O)N2CCN(c3ccc(OCCCC(F)(F)F)cc3)CC2)CC1 [Example 122]
> 10 µM | O=C(NO)C1(S(=O)(=O)N2CCN(c3ccc(OCCCC(F)(F)F)cc3)CC2)CCN(C2CC2)CC1 [Example 153]
